Test results as given in ChEMBL document CHEMBL1201862, “PubChem BioAssay data set” (2004).
Values belong to the molecule of their own block, whether it stands above or below them. Active and inactive are the calls of the source.

Experiments:
[1] = NIH/3T3 fibroblast cytotoxicity, dose response, cytotoxicity control, cell-based, plate reader, dry powder, set 2 (AID 652280); format: functional; conditions: NIH3T3
[2] = Late-stage results from the probe development effort to identify antagonists of arginine vasopressin receptor 1a (AVPR1a): fluorescence-based cell-based dose response AVPR1a inhibition assay.; format: functional
Vasopressin V1b receptor = Vasopressin V1b receptor (Homo sapiens, UniProt P47901); experiment: Late-stage results from the probe development effort to identify antagonists of arginine vasopressin receptor 1a (AVPR1a): fluorescence-based cell-based dose response AVPR1b inhibition counterscreen assay.; format: functional
Chain of Vasopressin V1b receptor (P47901 whole entry): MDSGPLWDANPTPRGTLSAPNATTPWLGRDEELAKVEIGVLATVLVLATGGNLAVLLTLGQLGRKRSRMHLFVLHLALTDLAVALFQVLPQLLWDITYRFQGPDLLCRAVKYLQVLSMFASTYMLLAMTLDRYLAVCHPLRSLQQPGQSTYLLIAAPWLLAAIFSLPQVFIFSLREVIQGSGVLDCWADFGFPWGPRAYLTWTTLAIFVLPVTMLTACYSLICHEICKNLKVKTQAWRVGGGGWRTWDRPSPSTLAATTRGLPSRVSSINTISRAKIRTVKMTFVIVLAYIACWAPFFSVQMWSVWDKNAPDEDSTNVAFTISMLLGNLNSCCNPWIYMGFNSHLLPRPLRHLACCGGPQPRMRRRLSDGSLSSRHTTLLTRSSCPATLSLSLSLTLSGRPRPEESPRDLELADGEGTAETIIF

Vasopressin V2 receptor = Vasopressin V2 receptor (Homo sapiens, UniProt P30518); experiment: Late-stage results from the probe development effort to identify antagonists of arginine vasopressin receptor 1a (AVPR1a): fluorescence-based cell-based dose response AVPR2 inhibition counterscreen assay.; format: functional
Chain of Vasopressin V2 receptor (P30518 whole entry): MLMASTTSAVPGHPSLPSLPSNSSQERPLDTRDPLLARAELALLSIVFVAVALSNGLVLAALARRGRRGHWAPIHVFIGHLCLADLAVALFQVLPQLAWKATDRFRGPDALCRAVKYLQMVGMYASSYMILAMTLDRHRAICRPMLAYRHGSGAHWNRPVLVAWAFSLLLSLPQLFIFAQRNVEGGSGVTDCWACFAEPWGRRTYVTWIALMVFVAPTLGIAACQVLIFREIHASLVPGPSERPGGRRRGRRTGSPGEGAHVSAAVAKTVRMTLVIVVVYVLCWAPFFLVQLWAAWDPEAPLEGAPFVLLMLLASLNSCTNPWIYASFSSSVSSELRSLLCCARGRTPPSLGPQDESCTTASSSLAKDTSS

[3] = Late-stage results from the probe development effort to identify antagonists of arginine vasopressin receptor 1a (AVPR1a): fluorescence-based cell-based dose response OXTR inhibition counterscreen assay.; format: functional
[4] = inhibitors of PGC1a acetylation in cells, dose response, cell-based, cherry-picked samples (AID 720514); format: functional;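 further: potency may reflect raised or lowered acetylation signal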
[5] = P. falciparum Dd2 growth inhibitors, dose response, SYBR Green, dry powder samples, set 9 (AID 1159568); format: functional, cell-based
[6] = A549 cell cytotoxicity, dose response, cytotoxicity control, 24 h, CellTiter-Glo luminescence, cherry-picks (AID 1053115); format: functional, cell-based; conditions: A549, 24 h
[7] = molecular target: T1, Oxysterols receptor LXR-beta (Homo sapiens, UniProt P55055); format: functional, cell-based;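 further: Cell-based luminescence dose-response assay of agonist activity at LXR, run as a confirmatory counterscreen to a daf-12 agonist screen; HEK293 cells with Gal4-LXR fusion and GAL4-driven luciferase reporter; agonist potency from rising luciferase signal of a Gal4-LXR reporter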
T1 sequence (P55055 whole entry): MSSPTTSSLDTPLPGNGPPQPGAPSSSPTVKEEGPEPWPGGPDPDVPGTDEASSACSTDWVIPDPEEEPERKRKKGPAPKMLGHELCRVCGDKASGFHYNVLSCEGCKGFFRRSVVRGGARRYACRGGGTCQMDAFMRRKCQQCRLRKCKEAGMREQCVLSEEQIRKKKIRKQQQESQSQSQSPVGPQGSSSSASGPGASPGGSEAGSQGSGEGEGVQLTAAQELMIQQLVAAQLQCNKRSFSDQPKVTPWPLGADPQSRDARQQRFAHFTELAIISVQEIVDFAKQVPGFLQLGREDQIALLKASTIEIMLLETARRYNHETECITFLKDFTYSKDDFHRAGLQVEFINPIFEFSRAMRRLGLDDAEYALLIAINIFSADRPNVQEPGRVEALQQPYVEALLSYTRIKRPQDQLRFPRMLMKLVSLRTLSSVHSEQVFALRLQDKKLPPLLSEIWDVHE

[8] = HepG2 cell cytotoxicity, dose response, cytotoxicity control, plate reader, dry powder, set 6 (AID 743311); format: functional, cell-based
[9] = A549 cell cytotoxicity, dose response, cytotoxicity control, plate reader, dry powder, set 6 (AID 743312); format: functional, cell-based
[10] = molecular target: T2, Low molecular weight phosphotyrosine protein phosphatase (Homo sapiens, UniProt P24666); experiment: LMPTP phosphatase inhibitors, dose response, biochemical, OMFP substrate, fluorescence intensity, set 2 (AID 743307); format: functional
T2 sequence (P24666 whole entry): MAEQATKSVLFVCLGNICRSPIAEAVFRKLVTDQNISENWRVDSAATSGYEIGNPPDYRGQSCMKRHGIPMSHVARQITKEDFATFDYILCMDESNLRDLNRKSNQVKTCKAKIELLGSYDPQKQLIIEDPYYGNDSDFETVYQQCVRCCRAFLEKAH

[11] = molecular target: T2, Low molecular weight phosphotyrosine protein phosphatase; experiment: LMPTP phosphatase inhibitors, colorimetric pNPP readout, dose response, orthogonal assay, biochemical, absorbance, pNPP substrate, LMPTP-A isoform, set 2 (AID 743308); format: functional
[12] = P. falciparum 3D7-ScDHODH growth inhibitors, dose response, SYBR Green, dry powder samples (AID 1159570); format: functional, cell-based;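 further: parasite growth measured after 72 hours of compound exposure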
[13] = P. falciparum Dd2 growth inhibitors, dose response, SYBR Green, cherry-picked samples (AID 1159567); format: functional, cell-based
[14] = P. falciparum Dd2 growth inhibitors, dose response, SYBR Green, dry powder samples (AID 1159566); format: functional, cell-based;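 further: potency for growth inhibition with lower SYBR green DNA signal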
[15] = P. falciparum ATP4 D1247Y mutant growth inhibitors, dose response, NITD609-resistant line, SYBR Green, dry powder (AID 1159571); format: functional, cell-based;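 further: parasites synchronized at ring stage by sorbitol before testing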
[16] = antifungal activity, alamar blue, dry powder, counter-screen for C. neoformans cell wall antifungals, dose response (AID 743128); format: functional, organism-based
Phospholipase D2 = Phospholipase D2 (Homo sapiens, UniProt O14939); experiment: PLD2 Cellular Concentration Response Study.; format: functional
Chain of Phospholipase D2 (O14939 whole entry): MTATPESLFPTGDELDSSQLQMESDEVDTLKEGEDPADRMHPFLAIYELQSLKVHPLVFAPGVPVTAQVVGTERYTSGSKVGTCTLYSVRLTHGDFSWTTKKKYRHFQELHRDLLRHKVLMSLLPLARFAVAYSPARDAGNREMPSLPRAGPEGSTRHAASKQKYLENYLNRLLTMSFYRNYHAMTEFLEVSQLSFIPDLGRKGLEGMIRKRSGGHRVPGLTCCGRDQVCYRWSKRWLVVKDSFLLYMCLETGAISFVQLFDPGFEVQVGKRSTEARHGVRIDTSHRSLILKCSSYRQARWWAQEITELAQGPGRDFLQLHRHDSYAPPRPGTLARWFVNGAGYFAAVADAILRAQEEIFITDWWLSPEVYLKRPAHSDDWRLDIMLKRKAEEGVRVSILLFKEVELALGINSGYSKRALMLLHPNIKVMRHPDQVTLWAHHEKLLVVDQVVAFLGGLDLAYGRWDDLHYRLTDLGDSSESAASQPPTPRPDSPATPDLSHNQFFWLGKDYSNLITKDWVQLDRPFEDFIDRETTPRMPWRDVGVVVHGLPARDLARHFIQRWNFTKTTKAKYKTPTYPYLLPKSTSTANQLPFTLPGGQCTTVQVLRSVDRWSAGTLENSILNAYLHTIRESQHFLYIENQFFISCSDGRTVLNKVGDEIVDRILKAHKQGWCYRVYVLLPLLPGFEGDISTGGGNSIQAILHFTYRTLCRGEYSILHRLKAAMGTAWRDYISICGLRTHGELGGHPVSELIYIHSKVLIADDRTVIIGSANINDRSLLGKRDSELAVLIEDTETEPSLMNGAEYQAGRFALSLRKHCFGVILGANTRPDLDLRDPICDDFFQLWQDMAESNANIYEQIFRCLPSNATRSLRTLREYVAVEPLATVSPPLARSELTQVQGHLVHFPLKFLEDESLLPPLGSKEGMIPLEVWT

Phospholipase D1 = Phospholipase D1 (Homo sapiens, UniProt Q13393); experiment: PLD1 Cellular Concentration Response Study.; format: functional
Chain of Phospholipase D1 (Q13393 whole entry): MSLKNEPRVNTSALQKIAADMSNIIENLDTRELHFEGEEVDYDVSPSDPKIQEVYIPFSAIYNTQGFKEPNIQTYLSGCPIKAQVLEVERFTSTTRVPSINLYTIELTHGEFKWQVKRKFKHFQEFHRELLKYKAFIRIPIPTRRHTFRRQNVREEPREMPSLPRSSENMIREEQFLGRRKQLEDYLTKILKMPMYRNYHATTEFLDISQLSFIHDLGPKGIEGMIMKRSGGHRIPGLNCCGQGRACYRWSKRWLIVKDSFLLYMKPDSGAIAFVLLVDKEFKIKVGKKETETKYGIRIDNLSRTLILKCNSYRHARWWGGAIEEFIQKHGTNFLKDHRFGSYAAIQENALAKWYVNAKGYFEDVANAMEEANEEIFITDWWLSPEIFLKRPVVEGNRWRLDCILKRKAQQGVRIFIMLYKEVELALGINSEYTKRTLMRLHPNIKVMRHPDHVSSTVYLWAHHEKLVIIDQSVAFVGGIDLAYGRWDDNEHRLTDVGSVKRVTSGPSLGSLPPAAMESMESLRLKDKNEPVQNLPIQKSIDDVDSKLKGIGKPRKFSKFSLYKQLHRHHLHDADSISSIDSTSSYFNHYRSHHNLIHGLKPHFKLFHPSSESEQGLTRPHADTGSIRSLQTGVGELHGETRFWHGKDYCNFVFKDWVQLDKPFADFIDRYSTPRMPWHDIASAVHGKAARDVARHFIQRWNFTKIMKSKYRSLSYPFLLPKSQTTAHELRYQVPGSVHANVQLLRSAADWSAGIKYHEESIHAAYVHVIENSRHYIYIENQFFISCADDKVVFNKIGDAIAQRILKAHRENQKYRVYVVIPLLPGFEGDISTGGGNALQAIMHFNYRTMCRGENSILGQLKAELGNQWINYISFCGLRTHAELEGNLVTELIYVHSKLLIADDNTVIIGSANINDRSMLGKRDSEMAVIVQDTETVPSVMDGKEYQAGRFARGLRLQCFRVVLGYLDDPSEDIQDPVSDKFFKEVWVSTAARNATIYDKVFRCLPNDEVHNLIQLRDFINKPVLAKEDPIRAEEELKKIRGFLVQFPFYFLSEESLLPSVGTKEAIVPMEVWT

[17] = HeLa 2N DNA content increase, dose response, cell-based, IC50 (AID 1117349); format: functional
[18] = Dose-response inhibition of insulin secretion in a rat insulinoma line at 5 mM glucose (AID 1117331); format: functional, cell-based; conditions: INS-1E
[19] = half-maximal inhibitory concentration for glucagon-like peptide-1 release, STC-1 cell line, dose-response (AID 1117345); format: functional, cell-based
[20] = HeLa 4N DNA content increase, dose response, cell-based, IC50 (AID 1117351); format: functional
[21] = Glucagon-like peptide 1 release potency, NCI-H716 cell line, dose-response, half-maximal inhibitory concentration (AID 1117344); format: functional, cell-based

SMILES: CN(C)CC#Cc1cccc(-c2nc(C(=O)Nc3ccc(-c4ccccc4)cc3)cc3c2[C@H](CCO)N([S+]([O-])C(C)(C)C)C3)c1 (stereo partly specified)
- AC50 [1]: 9.5 µM (active)

SMILES: O=C(C1CCN(c2cc(C(F)(F)F)ccn2)CC1)N(CC1CC1)c1ccc(Cl)cc1
- IC50 [2]: 36.7 nM (active)
- IC50 (Vasopressin V1b receptor): > 50 µM (inactive)
- IC50 (Vasopressin V2 receptor): > 50 µM (inactive)
- IC50 [3]: > 50 µM (inactive)

SMILES: Fc1cccc(CN2C[C@@H]3N[C@H](C2)[C@@H]3c2ccc(/C=C/c3ccccc3)cc2)c1
- AC50 [4]: 13.4 µM (active)
- AC50 [5]: 4.6 µM (active)

SMILES: CN1c2ccc(-c3ccc(C#N)cc3)cc2[C@@H]2[C@@H](CCN2C(=O)C2CCCCC2)[C@H]1CO
- AC50 [6]: 47.5 µM (active)

SMILES: Cc1csc(N/N=C/c2ccccc2F)n1
- EC50 [7]: > 67.6 µM (inactive)
- EC50 (cells): > 67.6 µM (inactive)

SMILES: Sc1nc2cccc(Cl)c2n1CCOc1ccccc1
- AC50 [8]: > 52 µM (inactive)
- AC50 [9]: 20.9 µM (active)

- IC50 [10]: 58.1 µM (inactive)
- IC50 [11]: > 80 µM (inactive)
SMILES: CN(C)CCNc1nc(-c2ccccc2)nc2ccccc12

SMILES: Cc1ccc(-c2ccccc2[C@H]2[C@@H](C#N)N(C(=O)c3cccc(F)c3)[C@H]2CO)cc1
- AC50 [12]: 1.49 µM (active)
- AC50 [13]: 2.52 µM (active)
- AC50 [14]: 1.26 µM (active)
- AC50 [15]: 6.78 µM (active)

SMILES: CCOC(=O)c1c(-c2ccc(F)cc2)csc1NC(=O)CN1CCN(CC)CC1
- AC50 [16]: 42.5 µM (active)

SMILES: COc1cccc(C(=O)N2CNC(=O)C23CCN(CCNC(=O)c2ccc4ccccc4c2)CC3)c1
- IC50 (Phospholipase D2): 2.05 µM (active)
- IC50 (Phospholipase D1): 19 µM (active)

SMILES: CCCCCCCCCCCCCCCCCCNC(=O)OC1CCN(C(=O)OC[C@H](COC(=O)N(Cc2cccc[n+]2CC)C(=O)c2ccccc2OC)OC)CC1 [MINOPAFANT]
- IC50 [17]: > 10 µM (inactive)
- IC50 [18]: 21.7 µM (inactive)
- IC50 [19]: 13.8 µM (inactive)
- IC50 [20]: > 10 µM (inactive)
- IC50 [21]: 9.52 µM (inactive)
